The target in one assay is P-450cam mutant Y96A (Pseudomonas putida, UniProt P00183, Y97A). The experiment in a line: biochemical. The following applies: read-out: Vs DTT (percentage displacement of DTT bound to P-450); for percent displacement of bound DTT at 200 µM: Mutant Y96A, 200 μM DTT, 200 μM test compound, phosphate buffer. Format: binding.
The next assay concerns the target wild type P450cam (Pseudomonas putida, UniProt P00183). In words: biochemical. Format: binding. The following applies: read-out: Vs DTT (percentage displacement of DTT bound to P-450).
[1] abbreviates: Wild type, 200 μM DTT, 200 μM test compound, phosphate buffer.

Read-outs that look alike come from different tables or passages of the source.

P-450cam mutant Y96A, sequence (P00183 2-415 Y97A): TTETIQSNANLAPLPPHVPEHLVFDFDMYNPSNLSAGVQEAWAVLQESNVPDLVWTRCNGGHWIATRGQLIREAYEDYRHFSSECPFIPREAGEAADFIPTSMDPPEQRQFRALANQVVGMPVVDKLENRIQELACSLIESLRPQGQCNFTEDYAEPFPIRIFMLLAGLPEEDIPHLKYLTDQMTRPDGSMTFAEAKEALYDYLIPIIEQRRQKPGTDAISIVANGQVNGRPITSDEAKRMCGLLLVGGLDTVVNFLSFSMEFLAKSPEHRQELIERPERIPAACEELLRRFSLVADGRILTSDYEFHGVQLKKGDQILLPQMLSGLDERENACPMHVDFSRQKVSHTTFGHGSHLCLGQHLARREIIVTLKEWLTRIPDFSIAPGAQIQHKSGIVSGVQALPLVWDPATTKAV
wild type P450cam, sequence (P00183 whole entry): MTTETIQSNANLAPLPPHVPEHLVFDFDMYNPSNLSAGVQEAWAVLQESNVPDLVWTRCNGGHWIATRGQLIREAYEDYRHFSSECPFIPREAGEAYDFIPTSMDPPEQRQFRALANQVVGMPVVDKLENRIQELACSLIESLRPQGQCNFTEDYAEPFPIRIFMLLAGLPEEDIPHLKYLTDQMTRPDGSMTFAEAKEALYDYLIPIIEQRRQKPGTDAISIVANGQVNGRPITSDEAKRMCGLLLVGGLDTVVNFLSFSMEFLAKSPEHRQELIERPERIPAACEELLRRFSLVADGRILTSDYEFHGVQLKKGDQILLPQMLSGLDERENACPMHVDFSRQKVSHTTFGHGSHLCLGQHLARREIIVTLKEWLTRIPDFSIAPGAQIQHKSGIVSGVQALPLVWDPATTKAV

Turning to `CCCCCCCC/C=C\CCCCCCCC(=O)O` [Oleic acid], at P-450cam mutant Y96A, the percent displacement of bound DTT at 200 µM is approximately 20%. Besides, the inhibition at 200 µM on wild type P450cam (setting [1]) was approximately 10%.

For `CCCCCCCCCCCC` [n-Dodecane], the percent displacement of bound DTT at 200 µM at P-450cam mutant Y96A stood at 5%.

For the compound `c1ccc(CNc2ccccc2)cc1` [N-Phenylbenzylamine], the inhibition at 200 µM at wild type P450cam (setting [1]) is 5%.

As to `O=C(Oc1ccccc1)c1ccccc1` [Phenylbenzoate], the inhibition at 200 µM on wild type P450cam (setting [1]) was found to be 5%.

On to `O=C1c2ccccc2Cc2ccccc21` [Anthrone], for which the percent displacement of bound DTT at 200 µM at P-450cam mutant Y96A is 5%. Besides, the inhibition at 200 µM at wild type P450cam (setting [1]) is 5%.

For the compound `CC(=O)Oc1ccc2ccccc2c1` [2-Naphthylacetate], on P-450cam mutant Y96A, the percent displacement of bound DTT at 200 µM is 5%. The inhibition at 200 µM on wild type P450cam (setting [1]) was determined as 5%.

Take `O=C1c2ccccc2-c2ccccc21` [9-Fluorenone]: the percent displacement of bound DTT at 200 µM at P-450cam mutant Y96A is 5%. For the same compound, the inhibition at 200 µM on wild type P450cam (setting [1]) was 20%.

Regarding `c1ccc2c(c1)Cc1ccccc1-2` [Fluorene], the percent displacement of bound DTT at 200 µM at P-450cam mutant Y96A stood at 50%.

Regarding `CCc1ccc2ccccc2c1` [2-Ethylnaphthalene], the percent displacement of bound DTT at 200 µM at P-450cam mutant Y96A came to 20%.

As to `CC(C)=CCC/C(C)=C/CC/C(C)=C/CC/C=C(\C)CC/C=C(\C)CCC=C(C)C` [Squalene], the percent displacement of bound DTT at 200 µM at P-450cam mutant Y96A worked out at 20%.

Consider `O=Cc1ccc2c(c1)Cc1ccccc1-2` [2-Fluorencarboxzaldehyde], for which the percent displacement of bound DTT at 200 µM on P-450cam mutant Y96A came out at 50%.

For the compound `CC(=O)Oc1cccc2ccccc12` [1-Naphthylacetate], the percent displacement of bound DTT at 200 µM at P-450cam mutant Y96A was found to be 5%. At wild type P450cam (setting [1]), the inhibition at 200 µM was 5%.

For `c1ccc(-c2ccccc2)cc1` [Biphenyl], the results for the inhibition at 200 µM on P-450cam mutant Y96A and at wild type P450cam were 90% and 20%, respectively.

For the compound `CCc1cccc2ccccc12` [1-Ethylnaphthalene], the percent displacement of bound DTT at 200 µM on P-450cam mutant Y96A turned out to be 20%.

As for `CCC(=O)Oc1cccc2ccccc12` [1-Naphthylpropionate], the percent displacement of bound DTT at 200 µM at P-450cam mutant Y96A amounted to 20%. Besides, the inhibition at 200 µM on wild type P450cam (setting [1]) turned out to be 20%.

Take `C1=CCCCC1` [Cyclohexene]: the percent displacement of bound DTT at 200 µM on P-450cam mutant Y96A was 40%. Besides, the inhibition at 200 µM at wild type P450cam (setting [1]) came out at 5%.

`O=C(c1ccccc1)c1ccc2ccccc2c1` [Naphthylphenylketone]: the percent displacement of bound DTT at 200 µM on P-450cam mutant Y96A was 5%. Further, on wild type P450cam (setting [1]), the inhibition at 200 µM worked out at 5%.

With `CCCCCCCCCCC` [n-Undecane], on P-450cam mutant Y96A, the percent displacement of bound DTT at 200 µM was determined as 20%.

As to `CCc1ccccc1` [Ethylbenzene], the percent displacement of bound DTT at 200 µM at P-450cam mutant Y96A worked out at 40%.

As to `c1ccc(COCc2ccccc2)cc1` [Benzylether], at wild type P450cam (setting [1]), the inhibition at 200 µM was determined as 5%.

Take `CCCC(=O)Oc1cccc2ccccc12` [1-Naphthylbutyrate]: the percent displacement of bound DTT at 200 µM at P-450cam mutant Y96A is 5%. For the same compound, the inhibition at 200 µM on wild type P450cam (setting [1]) is 5%.

Turning to `CCCCCCCCCCCCOS(=O)(=O)O` [SDS], at P-450cam mutant Y96A, the percent displacement of bound DTT at 200 µM came out at 60%. Moreover, the inhibition at 200 µM at wild type P450cam (setting [1]) was found to be 20%.

On to `c1ccc(CCc2ccccc2)cc1` [Bibenzyl], for which the percent displacement of bound DTT at 200 µM at P-450cam mutant Y96A stood at 55%.

Turning to `C=Cc1ccccc1` [Styrene], the percent displacement of bound DTT at 200 µM on P-450cam mutant Y96A turned out to be 30%.

As to `C(=C/c1ccccc1)/c1ccccc1` [cis-Stilbene], the percent displacement of bound DTT at 200 µM at P-450cam mutant Y96A was determined as 50%. In addition, at wild type P450cam (setting [1]), the inhibition at 200 µM came out at 20%.

Turning to `Cc1ccccc1` [Toluene], the percent displacement of bound DTT at 200 µM at P-450cam mutant Y96A stood at 30%.

`C=CC(=C)C` [Isoprene]: at P-450cam mutant Y96A, the percent displacement of bound DTT at 200 µM amounted to 10%.

As for `O=C(c1ccccc1)C1CCCCC1` [Cyclohexylphenylketone], the inhibition at 200 µM at wild type P450cam (setting [1]) came to 30%.

These data come from patent US6100074A, “Mutant mono-oxygenase cytochrome P-450 cam” (BG plc, priority 1994, dated 2000).
